Consider 28 molecules from patent publication US20220347175A1, “PYRIDAZINONE DERIVATIVE” (Sumitomo Dainippon Pharma Co., Ltd., priority 2018, published 2022).

In the first assay the target is T1, human Nav1.1 (Homo sapiens, UniProt P35498).
T1 construct: host or cells: HEK293
Briefly: Amplification of Nav1.1-derived voltage-dependent sodium current (Nav1.1 current), cell line stably expressing human Nav1.1, automated patch clamp. The assay is classed as cell-based. The following applies: 10 μmol/L compound (Test Result 5). An outline of the steps:
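Automated whole-cell voltage-clamp recordings used HEK293 cells stably expressing human Nav1.1, keeping only cells with >500 pA current, with currents evoked by ramp voltage. Compounds were applied in extracellular fluid with 1% DMSO, and amplification (%) was computed from peak current or AUC after versus before addition.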
A general note: The patch-clamp technique gives a direct electrical read-out from membranes.
Turning to `N#Cc1ccc(NC(=O)Cn2nc(C3CCC(F)(F)CC3)ccc2=O)cc1` [Example 47], the “Nav1.1 current amplification rate (%)” value was found to be 11%.
The same measure, in the same setting: the figure for `N#Cc1ccc(NC(=O)Cn2nc(C3=CCCCO3)ccc2=O)cc1` [Example 48] is 33%.
Take `CC1C=C(c2ccc(=O)n(CC(=O)Nc3ccc(C#N)cc3)n2)CC(C)O1` (stereo not shown) [Example 49]: the “Nav1.1 current amplification rate (%)” value is listed as 2%.
In the case of `Cc1ccc(-c2ccc(=O)n(CC(=O)Nc3cncnc3)n2)cc1` [Example 141], the “Nav1.1 current amplification rate (%)” value came out at 46%.
On the same count and under the same terms, the figure for `Cc1ccc(-c2ccc(=O)n(CC(=O)Nc3ccnnc3)n2)cc1` [Example 142] is 34%.
Take `CC1CC=C(c2ccc(=O)n(CC(=O)N3CC=C(c4ccccn4)CC3)n2)CC1` (stereo not shown) [Example 420]: the “Nav1.1 current amplification rate (%)” value is given as 39%.
On the same count and under the same terms, the figure for `O=C(Cn1nc(C2=CCCC2)ccc1=O)N1CCc2c(N3CCOCC3)cccc21` [Example 481] is 128%.

The assay is the same for the next values; noted with them: 10 μmol/L compound (Test Result 5); read-out: Nav1.1 current amplification rate (%).
For `CC1CCN(c2ccc(=O)n(CC(=O)N3CCN(c4ccccn4)CC3)n2)CC1` [Example 180], the activation at 10 µM was determined as 22%.
For the molecule `COc1cccc2c1CCN2C(=O)Cn1nc(N2CCC(C)(C)CC2)ccc1=O` [Example 186], the activation at 10 µM was determined as 51%.

Still in this assay, the particulars now being: compound 50 μmol/L; HEK293 stably expressing human Nav1.1.
As to `Cc1ccc(-c2ccc(=O)n(CC(=O)N3CCc4ccccc43)n2)cc1` [Example 157], the “Nav1.1 current amplification rate (%)” value was determined as 29%.
Take `Cc1nc(N2CCN(C(=O)Cn3nc(C4=CCC(C)CC4)ccc3=O)CC2)no1` (stereo not shown) [Example 406]: the “Nav1.1 current amplification rate (%)” value is given as 68%.
With `CC1CC=C(c2ccc(=O)n(CC(=O)N3CCN(C4CCCOC4)CC3)n2)CC1` (stereo not shown) [Example 408], the “Nav1.1 current amplification rate (%)” value worked out at 80%.
Still for that read-out and setting: the figure for `CC1CC=C(c2ccc(=O)n(CC(=O)N3CCN(C4CCOCC4)CC3)n2)CC1` (stereo not shown) [Example 411] is 18%; for `CC1CC=C(c2ccc(=O)n(CC(=O)N3CCN(c4ccn(C)n4)CC3)n2)CC1` (stereo not shown) [Example 412] it is 36%; for `O=C(Cn1nc(C2=CCCC2)ccc1=O)Nc1ccn2ccnc2c1` [Example 457] it is 29%.

Staying with this assay, now noted: compound 50 μmol/L; HEK293 stably expressing human Nav1.1; read-out: Nav1.1 current amplification rate (%).
As for `CC1CCN(c2ccc(=O)n(CC(=O)Nc3ccc4c(c3)NCC4)n2)CC1` [Example 233], the activation at 50 µM turned out to be 47%.
Still for that read-out and setting: the figure for `CC1CC2CCC(C1)N2c1ccc(=O)n(CC(=O)Nc2ccn3ccnc3c2)n1` (stereo not shown) [Example 237] is 27%; for `CC1CC2CCC(C1)N2c1ccc(=O)n(CC(=O)N2CCc3c(N4CCOCC4)cccc32)n1` (stereo not shown) [Example 238] it is 128%.

The same assay, now with this note: concentration of each compound 1 μmol/L (Test Result 6).
As for `CC1CC=C(c2ccc(=O)n(CC(=O)N3CC=C(c4ccncc4)CC3)n2)CC1` (stereo not shown) [Example 419], the “Nav1.1 current amplification rate (%)” value was 66%.
Same read-out and setting: the figure for `O=C(Cn1nc(-c2cc(Cl)cs2)ccc1=O)Nc1ccn2ccnc2c1` [Example 467] is 80%.

The assay is the same for the next values; noted with them: concentration of each compound 1 μmol/L (Test Result 6); read-out: Nav1.1 current amplification rate (%).
On to `CC1(C)CCN(c2ccc(=O)n(CC(=O)Nc3ccn4ncnc4c3)n2)CC1` [Example 228], for which the activation at 1 µM is 29%.
Take `CC1CCN(c2ccc(=O)n(CC(=O)Nc3ccn4ncnc4c3)n2)CC1` [Example 229]: the activation at 1 µM was determined as 34%.
Take `O=C(Cn1nc(N2CCC3(CCC3)C2)ccc1=O)Nc1ccn2ncnc2c1` [Example 230]: the activation at 1 µM was found to be 33%.
On to `O=C(Cn1nc(N2CCC3(CCC3)CC2)ccc1=O)Nc1ccn2ncnc2c1` [Example 231], for which the activation at 1 µM amounted to 50%.
Turning to `O=C(Cn1nc(N2CCC3(CCC3)C2)ccc1=O)Nc1ccc2cncnc2c1` [Example 236, 2-[3-(6-azaspiro[3.4]octan-6-yl)-6-oxopyridazin-1(6H)-yl]-N-(quinazolin-7-yl)acetamide], the activation at 1 µM was 214%.
`O=C(Cn1nc(C2=CCCCC2)ccc1=O)Nc1ccn2ncnc2c1` [Example 495]: the activation at 1 µM was found to be 28%.
With `CC1(C)CC=C(c2ccc(=O)n(CC(=O)Nc3ccn4ncnc4c3)n2)C1` [Example 496], the activation at 1 µM worked out at 37%.
Take `O=C(Cn1nc(-c2cc(Cl)cs2)ccc1=O)Nc1ccn2ncnc2c1` [Example 497]: the activation at 1 µM is 43%.
